Patent publication US20190178896A1, “MARKER FOR THE CLASSIFICATION, DIAGNOSIS AND TREATMENT OF SCOLIOSIS” (Chu Sainte-Justine, priority 2013, published 2019)
Counter-ions that a name gives are not always drawn. Like-named read-outs stand apart in the source and are kept apart here.

Key:
Gs and Gq proteins = experiment: Gs and Gq siRNA knockdown effect on impedance signature of GiPCR agonists in osteoblasts; format: cell-based, human
Description: Osteoblasts from control subjects and AIS patients of each functional group were transfected with scramble siRNA, Gs siRNA, or Gq siRNA. Efficiency of siRNA in control and AIS groups was verified with qPCR and Western blot analyses 48 hours after transfection, and response to stimulation with GiPCR agonist of cluster I, cluster II, cluster III and cluster IV was evaluated by challenging cells with 10 μM of (FIG. 14A-14D) LPA, (FIG. 14EA-14H) CB65, (FIG. 14I-14L) Somatostatin and (FIG. 14M-14P) Apelin-17, respectively. […] The impedance represented in y-axis as dziec was measured every 2 sec. Data are representative of impedance signatures generated by CellKey™ system in osteoblasts from 12 individuals tested three times in duplicate for each group.;
All Gi1, Gi2, Gi3, Gs and scrambled siRNA were obtained from Ambion (Ambion USA). The sequences used for gene silencing are shown in supplemental Table 3. Osteoblasts from control subjects and AIS patients were transiently transfected in serum-free medium, using Lipofectamine RNAiMAX reagent (Invitrogen) according to the manufacturer's instructions and functional experiments were performed 48 h post transfection. The gene knockdown was evaluated by quantitative real-time PCR (qPCR).
The possibility that the disparity in the shape of impedance among AIS groups in response to GiPCR activation implicates a component of Gs or Gq proteins-dependent response was then […] examined For this purpose, the small interference RNA (siRNA) approach was used to knockdown Gs or Gq proteins prior to stimulate cells.

[1] = test system: osteoblasts from control and AIS patients; experiment: cells
Description: The targeted endogenous receptors are shown in parentheses. The impedance represented in y-axis as dziec was measured by the Cellkey™ system every 2 sec. Data are representative of impedance signature in osteoblasts from 12 individuals tested three times in duplicate for each group;
A total of ten compounds were tested and the representative refraction index curves generated by each of these compounds in control and AIS osteoblasts are illustrated in FIGS. 10A-10J).

[2] = test system: PBMCs from patients with IS; experiment: Effect of rOPN on cellular response to Gi stimulation (somatostatin) in PBMCs, CDS-based system; format: cell-based, human; details: 0.5 μg/mL rOPN 18 h, 10 μM somatostatin
Description: Cells were serum-starved for 18 h in the presence or absence of 0.5 μg/mL rOPN and then stimulated with 10 μM of somatostatin to initiate Gi-mediated cellular response. Data in the graph were generated from maximum-minimum impedance and correspond to the average of response in duplicate;
3. Functional Assay: Day 1: 1. Place PBMCs aliquot from liquid nitrogen in water bath at 37° C. for a minute or until defrosted. 2. Transfer the cell suspension to a 50 mL tube with a sterile pipette. 3. Add 15 mL of Complete media and spin the cells down at 200×g for 5 minutes at room temperature. 4. Remove the supernatant by aspiration. 5. Gently suspend cell pellet in 1 mL of PHA media. 6. Complete the volume to 20 mL with the same media. 7. Cap the tube loosely to allow air to enter. 8. Leave the tube overnight at 37 ° C. in a CO2 incubator to allow quiescent lymphocytes to transform into rapidly-proliferating lymphoblasts.
Day 2: 1. Take the tube out of the incubator, screw the caps completely and spin the cells down at 200×g for 5 min at room temperature. 2. Remove the supernatant by aspiration. 3. Gently suspend cell pellet in 1 mL of complete media. 4. Complete the volume to 20 mL with the same media. 5. Cap the tube loosely to allow air to enter. 6. Leave the tube overnight at 37° C. in a CO2 incubator to expand cell numbers.
Day 3: 1. Take the tube out of the incubator, screw the caps completely and spin the cells down at 200×g for […] at room temperature. 2. Remove the supernatant by aspiration. 3. Wash cells twice with 10 mL of RPMI-1640 (media developed for growing human normal and neoplastic leukocytes (peripheral blood lymphocytes)) by centrifugation at 200×g for […] at room temperature. 4. Gently re-suspend the cell pellet in 600 μL of RPMI-1640. 5. Measure the cell concentration and viability, using an automated cell counter and viability analyzer. 6. Add appropriate volume of RPMI-1640 to adjust to a cell concentration of 1.5×10^5 cell/20 μL. 7. Treat cells with recombinant OPN (rOPN) or vehicle (PBS). 7.1 Transfer 100 μL of cell suspension to two sterile 1.5 ml eppendorf tubes. […]

[3] = Homo sapiens, Osteoblast, read-out: Control EC50 (nM)
[4] = Homo sapiens, Osteoblast, read-out: FG1 EC50 (nM)
[5] = Homo sapiens, Osteoblast, read-out: FG2 EC50 (nM)
[6] = Homo sapiens, Osteoblast, read-out: FG3 EC50 (nM)

CSCC[C@H](NC(=O)[C@@H]1CCCN1C(=O)CNC(=O)[C@H](CCCCN)NC(=O)[C@H](Cc1c[nH]cn1)NC(=O)[C@H](CO)NC(=O)[C@H](CC(C)C)NC(=O)[C@H](CCCNC(=N)N)NC(=O)[C@@H]1CCCN1C(=O)[C@H](CCCNC(=N)N)NC(=O)[C@H](CCC(N)=O)NC(=O)[C@H](CCCNC(=N)N)NC(=O)[C@H](CCCNC(=N)N)NC(=O)[C@H](Cc1ccccc1)NC(=O)[C@@H](N)CCCCN)C(=O)N1CCC[C@H]1C(=O)N[C@@H](Cc1ccccc1)C(=O)O [Apelin-17]
Gs coupling (permissive) of agonist/GiPCR (Gs and Gq proteins; FG1): Apelin-17/Gs− | Gs coupling (permissive) of agonist/GiPCR (Gs and Gq proteins; FG2): Apelin-17/Gs− | Gs coupling (permissive) of agonist/GiPCR (Gs and Gq proteins; FG3): Apelin-17/Gs−

c1ccc(N2CCN(CCCOc3ccc4c(c3)OCO4)CC2)cc1 [BP554, 1-[3-(3,4-Methylenedioxyphenoxy)propyl]-4-phenyl-piperazine maleate]
EC50 [1, 3]: 22.3 ± 1.7 nM | EC50 [1, 4]: 22.3 ± 2.3 nM | EC50 [1, 5]: 22.5 ± 1.6 nM | EC50 [1, 6]: 22.4 ± 1.5 nM

O=C(NC1CCCCC1)c1cn(CCN2CCOCC2)c2cc(Cl)ccc2c1=O [CB65, N-Cyclohexyl-7-chloro-1-[2-(4-morpholinyl)ethyl]quinolin-4(1H)-one-3-carboxamide]
EC50 [1, 3]: 13.9 ± 1.2 nM | EC50 [1, 4]: 14 ± 1.2 nM | EC50 [1, 5]: 13.7 ± 1.2 nM | EC50 [1, 6]: 13.9 ± 1.3 nM | Gs coupling (permissive) of agonist/GiPCR (Gs and Gq proteins; FG1): CB65/Gs+ | Gs coupling (permissive) of agonist/GiPCR (Gs and Gq proteins; FG2): CB65/Gs− | Gs coupling (permissive) of agonist/GiPCR (Gs and Gq proteins; FG3): CB65/Gs−

COc1ccc2[nH]cc(CCNC(C)=O)c2c1 [Melatonin, melatonin]
EC50 [1, 3]: 33.4 ± 8.4 nM | EC50 [1, 4]: 42.3 ± 9.4 nM | EC50 [1, 5]: 48.7 ± 6.4 nM | EC50 [1, 6]: 45.8 ± 5.3 nM

CCNC(=O)[C@H]1O[C@@H](n2cnc3c(N)ncnc32)[C@H](O)[C@@H]1O [NECA, 1-(6-Amino-9H-purin-9-yl)-1-deoxy-N-ethyl-β-D-ribofuranuronamide]
EC50 [1, 3]: 20.9 ± 2.2 nM | EC50 [1, 4]: 20.9 ± 1.7 nM | EC50 [1, 5]: 20.8 ± 1.2 nM | EC50 [1, 6]: 22.2 ± 2.2 nM

Brc1c(NC2=NCCN2)ccc2nccnc12 [UK14304, 5-bromo-N-(4,5-dihydro-1H-imidazol-2-yl)-6-quinoxalinamine]
EC50 [1, 3]: 16.5 ± 2.3 nM | EC50 [1, 4]: 18.5 ± 4.2 nM | EC50 [1, 5]: 16.6 ± 1.6 nM | EC50 [1, 6]: 17.8 ± 1.3 nM

Lysophosphatidic acid [LPA]
EC50 ([1]; read-out: Control EC50, impedance response, osteoblasts from control subjects): 8.52 ± 1.5 nM | EC50 ([1]; read-out: FG1 EC50, impedance response, osteoblasts from AIS patients of group FG1): 8.78 ± 0.6 nM | EC50 ([1]; read-out: FG2 EC50, impedance response, osteoblasts from AIS patients of group FG2): 8.54 ± 1.4 nM | EC50 ([1]; read-out: FG3 EC50, impedance response, osteoblasts from AIS patients of group FG3): 8.59 ± 1.2 nM | Gs coupling (permissive) of agonist/GiPCR (Gs and Gq proteins; FG1): LPA/Gs+ | Gq coupling (permissive) of agonist/GiPCR (Gs and Gq proteins; FG2): LPA/Gq+ | Gq coupling (permissive) of agonist/GiPCR (Gs and Gq proteins; FG3): LPA/Gq+

OPN: recombinant human osteopontin (R & D Systems)
reduction of response to Gi stimulation following rOPN treatment ([2]; patient 370): less than 50% | reduction of response to Gi stimulation following rOPN treatment ([2]; patients 345 and 382): more than 50% | OPN effect on the response to Gi stimulation ([2]; patients 353 and 371): increased the response
